Data: patent US20060069132A1, “Azolecarboxamide herbicides” (priority 2004, published 2006)

Key:
[1] = test system: morningglory; test: Test A pre-/postemergence herbicide test; format: in vivo, Ipomoea spp.; conditions: for Plant response rating, Morningglory: Postemergence; for Morningglory plant response rating: Preemergence
Procedure, shortened: (§1)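 Visual injury scores on a 0–100 scale (100 = complete control) taken about ten days post-treatment in greenhouse against untreated controls; dash means no result. Treatments: preemergence soil spray and postemergence spray to runoff on one- to two-leaf plants 2 to 10 cm tall, surfactant-containing formulation.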

[2] = test system: velvetleaf; test: Test A pre-/postemergence herbicide test; format: in vivo, Abutilon theophrasti; conditions: for Plant response rating, Velvetleaf: Postemergence; for Velvetleaf plant response rating: Preemergence
Procedure, shortened: as §1

[3] = test system: velvetleaf; test: Test B pre-/postemergence herbicide test; format: in vivo, Abutilon theophrasti; conditions: for Velvetleaf plant response rating: Preemergence, scale 0 to 100
Procedure, shortened: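 Flooded paddy rice and barnyardgrass were treated at the 2-leaf stage; upland plantings received compound either on sown seed or on 1- to 4-leaf seedlings. All were kept 13–15 days in a greenhouse and scored visually, 0–100, relative to untreated plants.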

[4] = test system: bermudagrass; test: Test C pre-/postemergence herbicide test; format: in vivo, Cynodon dactylon; conditions: for Bermudagrass plant response rating: 500 g ai/ha
Procedure, shortened: (§2)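 Visual ratings on a 0–100 scale (100 = complete control) made versus untreated controls after 12 to 14 greenhouse days. Test chemicals, formulated in surfactant-containing non-phytotoxic solvent, applied preemergence to planted seeds or postemergence to 1- to 4-leaf plants (2 to 18 cm).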

[5] = test system: woolly cupgrass; test: Test C pre-/postemergence herbicide test; format: in vivo, Eriochloa villosa; conditions: for Cupgrass, Woolly plant response rating: 500 g ai/ha
Procedure, shortened: as §2

[6] = test system: goosegrass; test: Test C pre-/postemergence herbicide test; format: in vivo, Eleusine indica; conditions: for Goosegrass plant response rating: 500 g ai/ha
Procedure, shortened: as §2

[7] = test system: morningglory; test: Test C pre-/postemergence herbicide test; format: in vivo, Ipomoea coccinea; parameters: key to Plant response rating, Morningglory: 0 = no effect, 100 = complete control; conditions: for Morningglory plant response rating: 500 g ai/ha
Procedure, shortened: as §2

[8] = test system: soybean; test: Test C pre-/postemergence herbicide test; format: in vivo, Glycine max; conditions: for Soybean plant response rating: 500 g ai/ha
Procedure, shortened: as §2

[9] = 500 g ai/ha, 0 to 100 scale, 0 no effect, 100 complete control
[10] = 2000 g ai/ha, 0 to 100 scale, 0 no effect, 100 complete control
[11] = 500 g ai/ha, visual rating, 0 to 100 scale (0 no effect, 100 complete control)
[12] = Postemergence, 500 g ai/ha, visual rating after 13 to 15 days, scale 0 (no effect) to 100 (complete control)
[13] = preemergence, 125 g ai/ha, 0 to 100 scale, 0 is no effect, 100 is complete control
[14] = 31 g ai/ha, preemergence, scale 0 to 100
[15] = 125 g ai/ha, scale 0-100, preemergence
[16] = Postemergence, 125 g ai/ha, scale 0 to 100, 0 no effect, 100 complete control
[17] = postemergence, 31 g ai/ha, scale 0 to 100
[18] = postemergence, 62 g ai/ha, scale 0 to 100
[19] = postemergence, 125 g ai/ha, scale 0 to 100
[20] = 125 g ai/ha, scale 0 (no effect) to 100 (complete control), visual, 12 to 14 days, preemergence
[21] = 250 g ai/ha, scale 0 to 100 (0 no effect, 100 complete control), visual, 12 to 14 days, preemergence
[22] = Preemergence, scale 0 to 100, 0 no effect, 100 complete control
[23] = Postemergence, 250 g ai/ha, scale 0 to 100, 0 no effect, 100 complete control

C=Cn1nc(C(C)(C)C)cc1C(=O)Nc1cccc(C(=O)NCC)c1 [Compound 33] was tested, and the “Plant response rating, Morningglory” value [1, 9] was 10, the “Plant response rating, Morningglory” value [1, 10] was 25 and the “Morningglory plant response rating” value [1, 11] was 35. For the same compound, the “Morningglory plant response rating” value [1, 10] was 70, the “Plant response rating, Velvetleaf” value [2, 9] was 30 and the “Plant response rating, Velvetleaf” value [2, 10] was 40. The “Velvetleaf plant response rating” value [2, 11] was 20, the “Velvetleaf plant response rating” value [2, 10] was 80 and the “Plant response rating, Velvetleaf” value [3, 12] was 60. For the same compound, the “Velvetleaf plant response rating” value ([3]; 500 g ai/ha) was 80, the “Plant response rating, Velvetleaf” value [3, 13] was 40 and the “Plant response rating, Bermudagrass” value ([4]; 16 g ai/ha, scale 0 to 100, 0 no effect, 100 complete control, last section of Table C (species set of preemergence test)) was 30. The “Plant response rating, Bermudagrass” value [4, 14] was 50, the “Plant response rating (0 = no effect, 100 = complete control), Bermudagrass” value ([4]; 62 g ai/ha, preemergence) was 80 and the “Plant response rating, Bermudagrass” value [4, 15] was 90. The “Plant response rating, Bermudagrass” value [4, 16] was 30, the “Plant response rating, Bermudagrass” value ([4]; postemergence, 16 g ai/ha, scale 0 to 100) was 0 and the “Plant response rating, Bermudagrass” value [4, 17] was 20. For the same compound, the “Plant response rating, Bermudagrass” value [4, 18] was 20, the “Plant response rating, Cupgrass, Woolly” value [5, 14] was 20 and the “Plant response rating (0 = no effect, 100 = complete control), Cupgrass, Woolly” value ([5]; 62 g ai/ha, preemergence) was 20. The “Plant response rating, Cupgrass, Woolly” value [5, 15] was 50, the “Plant response rating, Cupgrass, Woolly” value [5, 16] was 60 and the “Plant response rating, Cupgrass, Woolly” value [5, 17] was 50. The “Plant response rating, Cupgrass, Woolly” value [5, 18] was 60, the “Plant response rating, Goosegrass” value [6, 14] was 20 and the “Plant response rating (0 = no effect, 100 = complete control), Goosegrass” value ([6]; 62 g ai/ha, preemergence) was 60. For the same compound, the “Plant response rating, Goosegrass” value [6, 15] was 90, the “Plant response rating, Goosegrass” value [6, 16] was 40 and the “Plant response rating, Goosegrass” value [6, 17] was 40. The “Plant response rating, Goosegrass” value [6, 18] was 40, the “Plant response rating, Morningglory” value [7, 14] was 0 and the “Plant response rating (0 = no effect, 100 = complete control), Morningglory” value ([7]; 62 g ai/ha, preemergence) was 0. The “Plant response rating, Morningglory” value [7, 19] was 30, the “Plant response rating, Morningglory” value [7, 17] was 20 and the “Plant response rating, Morningglory” value [7, 18] was 20. The “Plant response rating, Soybean” value [8, 14] was 0, the “Plant response rating (0 = no effect, 100 = complete control), Soybean” value ([8]; 62 g ai/ha, preemergence) was 0 and the “Plant response rating, Soybean” value [8, 19] was 90. For the same compound, the “Plant response rating, Soybean” value [8, 17] was 80 and the “Plant response rating, Soybean” value [8, 18] was 80.

C=CCNC(=O)c1cccc(NC(=O)c2cc(C(C)(C)C)nn2CC)c1 [Compound 46] was tested, and the “Plant response rating, Morningglory” value [1, 9] was 40, the “Plant response rating, Morningglory” value [1, 10] was 65 and the “Morningglory plant response rating” value [1, 11] was 40. For the same compound, the “Morningglory plant response rating” value [1, 10] was 65, the “Plant response rating, Velvetleaf” value [2, 10] was 75 and the “Velvetleaf plant response rating” value [2, 11] was 30. The “Velvetleaf plant response rating” value [2, 10] was 85, the “Plant response rating, Velvetleaf” value [3, 12] was 80 and the “Velvetleaf plant response rating” value ([3]; 500 g ai/ha) was 100. The “Plant response rating, Velvetleaf” value [3, 13] was 50, the “Plant response rating (0 = no effect, 100 = complete control), Bermudagrass” value ([4]; 62 g ai/ha, preemergence) was 90 and the “Plant response rating, Bermudagrass” value [4, 20] was 100. For the same compound, the “Plant response rating, Bermudagrass” value [4, 21] was 100, the “Plant response rating, Bermudagrass” value [4, 16] was 100 and the “Bermudagrass plant response rating” value [4, 22] was 100. The “Plant response rating (0 = no effect, 100 = complete control), Cupgrass, Woolly” value ([5]; 62 g ai/ha, preemergence) was 10, the “Plant response rating, Cupgrass, Woolly” value [5, 20] was 10 and the “Plant response rating, Cupgrass, Woolly” value [5, 21] was 30. For the same compound, the “Cupgrass, Woolly plant response rating” value ([5]; Postemergence, scale 0 to 100) was 70, the “Plant response rating, Cupgrass, Woolly” value [5, 16] was 60 and the “Plant response rating, Cupgrass, Woolly” value [5, 23] was 70. The “Cupgrass, Woolly plant response rating” value [5, 22] was 80, the “Plant response rating, Cupgrass, Woolly” value [5, 18] was 40 and the “Plant response rating (0 = no effect, 100 = complete control), Goosegrass” value ([6]; 62 g ai/ha, preemergence) was 60. For the same compound, the “Plant response rating, Goosegrass” value [6, 20] was 90, the “Plant response rating, Goosegrass” value [6, 21] was 100 and the “Goosegrass plant response rating” value ([6]; Postemergence, scale 0 to 100) was 80. The “Plant response rating, Goosegrass” value [6, 16] was 50, the “Plant response rating, Goosegrass” value [6, 23] was 50 and the “Goosegrass plant response rating” value [6, 22] was 100. For the same compound, the “Plant response rating, Goosegrass” value [6, 18] was 40, the “Plant response rating (0 = no effect, 100 = complete control), Morningglory” value ([7]; 62 g ai/ha, preemergence) was 0 and the “Plant response rating, Morningglory” value [7, 20] was 0. The “Plant response rating, Morningglory” value [7, 21] was 90, the “Morningglory plant response rating” value ([7]; Postemergence, scale 0 to 100) was 80 and the “Plant response rating, Morningglory” value [7, 23] was 60. The “Morningglory plant response rating” value [7, 22] was 90, the “Plant response rating, Morningglory” value [7, 18] was 60 and the “Plant response rating (0 = no effect, 100 = complete control), Soybean” value ([8]; 62 g ai/ha, preemergence) was 0. The “Plant response rating, Soybean” value [8, 20] was 0, the “Plant response rating, Soybean” value [8, 21] was 10 and the “Soybean plant response rating” value ([8]; Postemergence, scale 0 to 100) was 100. For the same compound, the “Plant response rating, Soybean” value [8, 23] was 100, the “Soybean plant response rating” value [8, 22] was 10 and the “Plant response rating, Soybean” value [8, 18] was 100.

For C#CCNC(=O)c1cccc(NC(=O)c2cc(C(C)(C)C)nn2CC)c1 [Compound 47], the “Plant response rating, Morningglory” value [1, 9] was 20, the “Plant response rating, Morningglory” value [1, 10] was 25 and the “Morningglory plant response rating” value [1, 11] was 20. The “Morningglory plant response rating” value [1, 10] was 30, the “Plant response rating, Velvetleaf” value [2, 10] was 40 and the “Velvetleaf plant response rating” value [2, 11] was 20. The “Velvetleaf plant response rating” value [2, 10] was 95, the “Plant response rating, Velvetleaf” value [3, 12] was 70 and the “Velvetleaf plant response rating” value ([3]; 500 g ai/ha) was 100. For the same compound, the “Plant response rating, Velvetleaf” value [3, 13] was 30, the “Plant response rating (0 = no effect, 100 = complete control), Bermudagrass” value ([4]; 62 g ai/ha, preemergence) was 90 and the “Plant response rating, Bermudagrass” value [4, 20] was 100. The “Plant response rating, Bermudagrass” value [4, 21] was 100, the “Bermudagrass plant response rating” value ([4]; Postemergence, scale 0 to 100) was 60 and the “Bermudagrass plant response rating” value [4, 22] was 100. For the same compound, the “Plant response rating, Bermudagrass” value [4, 18] was 60, the “Plant response rating (0 = no effect, 100 = complete control), Cupgrass, Woolly” value ([5]; 62 g ai/ha, preemergence) was 10 and the “Plant response rating, Cupgrass, Woolly” value [5, 20] was 10. For the same compound, the “Plant response rating, Cupgrass, Woolly” value [5, 21] was 60, the “Cupgrass, Woolly plant response rating” value ([5]; Postemergence, scale 0 to 100) was 80 and the “Plant response rating, Cupgrass, Woolly” value [5, 16] was 60. For the same compound, the “Plant response rating, Cupgrass, Woolly” value [5, 23] was 70, the “Cupgrass, Woolly plant response rating” value [5, 22] was 80 and the “Plant response rating, Cupgrass, Woolly” value [5, 18] was 60. For the same compound, the “Plant response rating (0 = no effect, 100 = complete control), Goosegrass” value ([6]; 62 g ai/ha, preemergence) was 80, the “Plant response rating, Goosegrass” value [6, 20] was 100 and the “Plant response rating, Goosegrass” value [6, 21] was 100. For the same compound, the “Goosegrass plant response rating” value ([6]; Postemergence, scale 0 to 100) was 80, the “Plant response rating, Goosegrass” value [6, 16] was 60 and the “Plant response rating, Goosegrass” value [6, 23] was 60. For the same compound, the “Goosegrass plant response rating” value [6, 22] was 100, the “Plant response rating, Goosegrass” value [6, 18] was 50 and the “Plant response rating (0 = no effect, 100 = complete control), Morningglory” value ([7]; 62 g ai/ha, preemergence) was 0. For the same compound, the “Plant response rating, Morningglory” value [7, 20] was 0, the “Plant response rating, Morningglory” value [7, 21] was 90 and the “Morningglory plant response rating” value ([7]; Postemergence, scale 0 to 100) was 90. The “Plant response rating, Morningglory” value [7, 23] was 70, the “Morningglory plant response rating” value [7, 22] was 90 and the “Plant response rating, Morningglory” value [7, 18] was 50. For the same compound, the “Plant response rating (0 = no effect, 100 = complete control), Soybean” value ([8]; 62 g ai/ha, preemergence) was 0, the “Plant response rating, Soybean” value [8, 20] was 0 and the “Plant response rating, Soybean” value [8, 21] was 10. The “Soybean plant response rating” value ([8]; Postemergence, scale 0 to 100) was 100, the “Plant response rating, Soybean” value [8, 23] was 100 and the “Soybean plant response rating” value [8, 22] was 20. The “Plant response rating, Soybean” value [8, 18] was 100.
